Measurements reported in patent US10954269B2, “Anti-inflammatory tripeptides” (Dr. August Wolff Gmbh & Co. KG Arzneimittel, priority 2013, dated 2021).
[ ]: non-standard residue; d: D form.

Tested on: primary human T-cells
Assay: Cytokine secretion on protein level in activated primary human T-cells (13-plex FACS / Luminex, supernatant)
Assay type: cell-based
Summary of the method: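 Primary T-cells from peripheral blood of healthy volunteers, or HaCaT cells, were activated with PMA/Ionomycin or IFN-γ for 48 h and treated with tripeptides. Supernatants were collected 48 h and 72 h after stimulation and cytokines (IL-1, IL-2, IL-6, IL-12p70, IL-17, IFN-γ, TNF-α) were measured by 13-plex FACS.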

[1] = primary human T-cells stimulated with IFN-γ, 10^−9M
[2] = primary human T-cells stimulated with IFN-γ, substance 10^−9M
[3] = primary human T-cells stimulated with PBS, 10^−9M
[4] = primary human T-cells stimulated with PBS, substance 10^−9M
[5] = primary human T-cells stimulated with PMA/Ionomycin, 10^−9M
[6] = primary human T-cells stimulated with PMA/Ionomycin, substance 10^−9M

H-Lys-[dP]-Thr-OH [K(D)PT, reference compound]
IL-1 cytokine concentration [1]: 335.73 pg/mL | IL-2 cytokine concentration [1]: 79.24 pg/mL | IL-4 cytokine concentration [1]: 184.31 pg/mL | IL-5 cytokine concentration [1]: 249.7 pg/mL | IL-6 cytokine concentration [1]: 93.02 pg/mL | IL-9 cytokine concentration [1]: 93.74 pg/mL | IL-10 cytokine concentration [1]: 169.54 pg/mL | IL-12p70 cytokine concentration [1]: 895.95 pg/mL | IL-13 cytokine concentration [1]: 72.09 pg/mL | IL-17 cytokine concentration [1]: 204.05 pg/mL | IL-22 cytokine concentration [1]: 22747.7 pg/mL | TNF-α cytokine concentration [1]: 178.65 pg/mL | IL-1 cytokine concentration [2]: 0 pg/mL | IL-2 cytokine concentration [2]: 0 pg/mL | IL-4 cytokine concentration [2]: 0 pg/mL | IL-5 cytokine concentration [2]: 0 pg/mL | IL-6 cytokine concentration [2]: 58.47 pg/mL | IL-9 cytokine concentration [2]: 9.51 pg/mL | IL-10 cytokine concentration [2]: 33.21 pg/mL | IL-12 cytokine concentration [2]: 0 pg/mL | IL-12p70 cytokine concentration [2]: 0 pg/mL | IL-13 cytokine concentration [2]: 0 pg/mL | IL-17 cytokine concentration [2]: 0 pg/mL | IL-22 cytokine concentration [2]: 0 pg/mL | TNF-α cytokine concentration [2]: 0 pg/mL | IFN-γ cytokine concentration [3]: 610.05 pg/mL | IL-1 cytokine concentration [3]: 268.37 pg/mL | IL-2 cytokine concentration [3]: 435.34 pg/mL | IL-4 cytokine concentration [3]: 136.29 pg/mL | IL-5 cytokine concentration [3]: 0 pg/mL | IL-6 cytokine concentration [3]: 92.39 pg/mL | IL-9 cytokine concentration [3]: 102.2 pg/mL | IL-10 cytokine concentration [3]: 126.13 pg/mL | IL-12p70 cytokine concentration [3]: 114.67 pg/mL | IL-13 cytokine concentration [3]: 80.48 pg/mL | IL-17 cytokine concentration [3]: 182.45 pg/mL | IL-22 cytokine concentration [3]: 0 pg/mL | TNF-α cytokine concentration [3]: 160.25 pg/mL | IFN-γ cytokine concentration [4]: 0 pg/mL | IL-1 cytokine concentration [4]: 147.97 pg/mL | IL-2 cytokine concentration [4]: 0 pg/mL | IL-4 cytokine concentration [4]: 0 pg/mL | IL-5 cytokine concentration [4]: 0 pg/mL | IL-6 cytokine concentration [4]: 109.89 pg/mL | IL-9 cytokine concentration [4]: 0 pg/mL | IL-10 cytokine concentration [4]: 159.09 pg/mL | IL-12 cytokine concentration [4]: 0 pg/mL | IL-12p70 cytokine concentration [4]: 0 pg/mL | IL-13 cytokine concentration [4]: 172.66 pg/mL | IL-17 cytokine concentration [4]: 127.21 pg/mL | IL-22 cytokine concentration [4]: 0 pg/mL | INF-α cytokine concentration [4]: 0 pg/mL | TNF-a cytokine concentration [4]: 65.47 pg/mL | TNF-α cytokine concentration [4]: 65.47 pg/mL | IFN-γ cytokine concentration [5]: 1854.29 pg/mL | IL-1 cytokine concentration [5]: 69689.2 pg/mL | IL-2 cytokine concentration [5]: 12000 pg/mL | IL-4 cytokine concentration [5]: 235.78 pg/mL | IL-5 cytokine concentration [5]: 173.34 pg/mL | IL-6 cytokine concentration [5]: 2058.24 pg/mL | IL-9 cytokine concentration [5]: 162.4 pg/mL | IL-10 cytokine concentration [5]: 4936.79 pg/mL | IL-12p70 cytokine concentration [5]: 1703.5 pg/mL | IL-13 cytokine concentration [5]: 944.87 pg/mL | IL-17 cytokine concentration [5]: 3116.43 pg/mL | IL-22 cytokine concentration [5]: 24079 pg/mL | TNF-α cytokine concentration [5]: 3600 pg/mL | IFN-γ cytokine concentration [6]: 12070.4 pg/mL | IL-1 cytokine concentration [6]: 594.38 pg/mL | IL-2 cytokine concentration [6]: 3486.84 pg/mL | IL-4 cytokine concentration [6]: 41.83 pg/mL | IL-5 cytokine concentration [6]: 379.39 pg/mL | IL-6 cytokine concentration [6]: 1535.49 pg/mL | IL-9 cytokine concentration [6]: 332.07 pg/mL | IL-10 cytokine concentration [6]: 877.54 pg/mL | IL-12 cytokine concentration [6]: 0 pg/mL | IL-12p70 cytokine concentration [6]: 0 pg/mL | IL-13 cytokine concentration [6]: 1158.74 pg/mL | IL-17 cytokine concentration [6]: 1808.01 pg/mL | IL-22 cytokine concentration [6]: 0 pg/mL | INF-α cytokine concentration [6]: 12070.42 pg/mL | TNF-a cytokine concentration [6]: 3998.01 pg/mL | TNF-α cytokine concentration [6]: 3998.01 pg/mL
